# Measured values reported in a melting point compilation (Tetko et al.).
row,Structure (SMILES),melting point [°C]
1,Cc1c(C(=O)O)cnn1-c1ccc(Cl)cc1,201 to 202
2,BrC=Cc1ccccc1,7
3,FC1(F)C(F)(F)C(F)(Cl)C1(F)Cl (stereo unspecified),-15
4,CCC(=O)c1cccc(Br)c1,40
5,O=C(Cl)C1=Cc2ccccc2OC1,70 to 73
6,CCCCCCCCCCCC=O,44.5
7,CS(=O)(=O)n1ccnc1,86 to 88
8,Cc1cc(Sc2cc(C)c(O)c(C(C)(C)C)c2)cc(C(C)(C)C)c1O,126
9,CC(=O)N1CCC(c2c[nH]c3ccccc23)CC1,174 to 176
10,N[C@@H]1CC[C@H](C(=O)O)C1,192
11,CN(C)CCCOc1nn(Cc2ccccc2)c2ccccc12,160
12,C#CC1(O)CCC2C3CCC4=C(CCC(=O)C4)C3CCC21C (stereo unspecified),170
13,Cc1ccc(C(=O)C2=NOC3C(=O)N(c4cc(Cl)ccc4Cl)C(=O)C23)cc1 (stereo unspecified),191
14,CCCNC(=O)NNC(=O)OCC,95
15,O=Cc1ccc(Cl)cc1F,59
16,CCOC(=O)c1c(C)csc1N,81
17,Cn1nc(-c2cccs2)cc1CCl,96 to 97
18,C/C(=N\O)c1cc(C(C)(C)C)c(O)c(C(C)(C)C)c1,200 to 201
19,Cc1cccc(C)c1NC(=O)C1CCCCN1C (stereo unspecified),150
20,COc1ccc(NN=C2C(=O)NC(=S)NC2=O)cc1,246
21,CN(NC=O)c1ccccc1,47
22,O=C1OC2(c3ccccc31)c1cc([N+](=O)[O-])c(O)c(Br)c1Oc1c2cc([N+](=O)[O-])c(O)c1Br,275
23,CC1=NN(c2ccccc2)C(=O)/C1=C\c1cccc(/C=C2\C(=O)N(c3ccccc3)N=C2C)c1,220

row,Structure (SMILES),melting point [°C]
1,C(=Nc1ccccc1)c1ccccc1,54
2,NS(=O)(=O)c1cc(F)c(Br)cc1F,165
3,OCc1cccc(C(F)(F)F)c1Cl,76
4,CC(C)[C@@H]1COC(=O)N1,70 to 73
5,CC(C)(C)c1ccc2cc3ccccc3cc2c1,147
6,O=Cc1ccc(O)c(Cl)c1,139
7,BrCC=Cc1ccccc1,26 to 32
8,N#C/C(=N\Nc1cccc([N+](=O)[O-])c1)c1nc2ccccc2[nH]1,306 to 308
9,Cc1ccc2c(-c3ccccc3)nc(=O)n(C(C)C)c2c1,138
10,CC(C)c1ccc(C=C[N+](=O)[O-])cc1,35 to 38
11,CCCCCCCCOC(=O)CCCCCC,-22.5
12,CCC(C(=O)NC(=O)NC(C)=O)c1ccccc1 (stereo unspecified),100
13,COc1ccc(C(=O)CCCCl)cc1,32
14,Cc1nccn1-c1ccc(C#N)cc1,138 to 141
15,COc1ccc(-c2cc(NN=c3c(C(F)(F)F)nc4ccccc4[nH]c3=O)[nH]n2)cc1,154
16,COC(=O)c1ccc(CBr)cc1,56
17,N#Cc1ccc(N=C=S)cc1,120
18,CC12CCC3C(CCC4(C)CC(=O)CCC34C)C1CCC2=O (stereo unspecified),148
19,CCC(OC(N)=O)C1CCCCC1 (stereo unspecified),128
20,Cc1cc(C)c2c(=O)[nH]n(C)c2n1,216
21,O=C(O)c1ccc(-n2ccnc2)cc1,309 to 311
22,COc1cc2c(cc1C(C)C)C(=O)C2,43
23,OCC1OC(O)C(O)C(O)C1O (stereo unspecified),170

row,Structure (SMILES),melting point [°C]
1,N#Cc1c(-c2cccs2)cc(-c2ccco2)[nH]c1=O,318 to 320
2,O=C(CBr)c1ccc2c(c1)OCCO2,115 to 116
3,O=C(Oc1c(F)c(F)c(F)c(F)c1F)C1CCN(c2ncnc3ccsc23)CC1,99 to 104
4,COc1cc(C(=O)O)cc(Cl)c1O,245
5,NNC(=S)NCc1cccnc1,171 to 173
6,CC1(C)C2CCC1(C)C(O)C2CCO (stereo unspecified),83
7,Cc1cc(C)c(NC(=O)C(Br)C(C)(C)C)c(C)c1 (stereo unspecified),185 to 188
8,CCOC(=O)CC[C@H](NC(=O)c1ccc(N)cc1)C(=O)OCC,141
9,Nc1cc(C(F)(F)F)cc(C(F)(F)F)c1Br,35
10,O=Cc1cc(O)c(O)cc1O,223
11,O=[N+]([O-])C(Br)(Br)Br,10
12,c1ccc2c(c1)nnc1ccccc12,158
13,CCOC(=O)CSc1ncc(C(=O)OC)n1C,35 to 36
14,CCCCCCCCc1ccc(/N=N/c2ccc(OC(=O)CC)cc2)cc1,60 to 62
15,CC(=O)OC1CC2C(C)C(=O)C3(C4CC5C(C)(C)CCC(OC(C)=O)C5(C(OC(C)=O)O4)C13)C2OC(C)=O (stereo unspecified),265
16,Brc1ccc2[nH]ncc2c1,123 to 124
17,Cc1cc(Br)ccc1C#N,64
18,O=c1c(O)c(-c2ccc(O)c(O)c2)oc2cc(OC3OC(CO)C(O)C(O)C3O)cc(O)c12 (stereo unspecified),248
19,CCOC(=O)c1ccc(NC(=O)C(F)(F)C(F)(F)C(F)(F)C(F)(F)C(F)(F)C(F)(F)C(F)(F)C(F)(F)F)cc1,135 to 137
20,Cc1ccc2nc(C)[nH]c2c1,203
21,O=C(O)COc1ccc(Cl)cc1CO,141
22,CCOC(=O)c1nn(-c2ccc(C)cc2)c(C)c1C(=O)c1noc(-c2ccc3ccccc3c2)c1S(=O)(=O)c1ccccc1,172
23,O=C(O)c1ncoc1-c1ccccc1,181

row,Structure (SMILES),melting point [°C]
1,N#Cc1ccc(C(F)(F)F)cc1,38
2,N#Cc1c(-c2ccccc2)c2c(O)[nH]n(-c3ccccc3)c-2nc1=S,142
3,NS(=O)(=O)c1ccc(Sc2cccs2)s1,105 to 108
4,CC(=O)c1ccc(CO)cc1,54
5,CCC(C)c1cc([N+](=O)[O-])cc([N+](=O)[O-])c1O (stereo unspecified),40
6,Nc1nc(-c2cccc3ccccc23)cs1,157
7,CC(C)(C#N)N=NC(C)(C)C#N,102
8,O=Cc1ccc(OP(=S)(Oc2ccc(C=O)cc2)Oc2ccc(C=O)cc2)cc1,115 to 119
9,CCOC(=O)Nc1ccc2cc3ccc4c(c3nc2c1)COCN4C(=O)OCC,174
10,Cc1cc(Cl)ncc1N,69 to 73
11,OCc1cc(O)ccc1I,146 to 148
12,O=C(O)C(=Cc1ccc(Cl)cc1)C(=Cc1ccc(Cl)cc1)C(=O)O,232
13,CCOCCOCCOC(C)=O,-25
14,O=C(Nc1ccccc1)C(C(F)(F)F)C(F)(F)F,165 to 167
15,O=Cc1ncc[nH]1,209
16,CCOC(=O)C1Cc2cc3c(cc2NC1=O)NC(=O)C(C(=O)OCC)C3 (stereo unspecified),242
17,CC12CCC(C(=O)Cl)(OC1=O)C2(C)C (stereo unspecified),66
18,O=C(NCc1ccc(S(=O)(=O)Cl)s1)c1ccc(Cl)cc1,138 to 140
19,Cc1cc(O)c(C(=O)CC(=O)c2ccccc2)cc1Cl,120 to 123
20,Cc1cc2ccccc2c2ccc3ccccc3c12,118
21,N#CCC[Si](Cl)(Cl)Cl,33 to 34
22,CC1(C)OC(C)(C(O)(Cc2ccccc2)Cc2ccccc2)CCC1C(=O)O (stereo unspecified),137 to 138
